Results published in patent US6107318A, “Naphthothiazolone derivatives active on the D3 dopaminergic receptor” (Zambon Group S.p.A., priority 1997, dated 2000).
Where a name gives a salt, the structure may show the parent alone.

What was measured:
D1 = biological target: T1, D1 (Homo sapiens, UniProt P21728); assay: Binding to dopaminergic receptors in cell cultures, displacement of [3H]-SCH23390, D1; conditions: CHO or NM9D cell membranes; [3H]-SCH23390 0.2 nM; non specific (-)cis-flupenthixol 1 μM; Cheng and Prusoff; read-out: Receptor binding (Ki nM) D1
T1 construct: expressed in transfected cells; host or cells: CHO or murine mesencephalic neuronal NM9D (sic)
T1 sequence (P21728 whole entry): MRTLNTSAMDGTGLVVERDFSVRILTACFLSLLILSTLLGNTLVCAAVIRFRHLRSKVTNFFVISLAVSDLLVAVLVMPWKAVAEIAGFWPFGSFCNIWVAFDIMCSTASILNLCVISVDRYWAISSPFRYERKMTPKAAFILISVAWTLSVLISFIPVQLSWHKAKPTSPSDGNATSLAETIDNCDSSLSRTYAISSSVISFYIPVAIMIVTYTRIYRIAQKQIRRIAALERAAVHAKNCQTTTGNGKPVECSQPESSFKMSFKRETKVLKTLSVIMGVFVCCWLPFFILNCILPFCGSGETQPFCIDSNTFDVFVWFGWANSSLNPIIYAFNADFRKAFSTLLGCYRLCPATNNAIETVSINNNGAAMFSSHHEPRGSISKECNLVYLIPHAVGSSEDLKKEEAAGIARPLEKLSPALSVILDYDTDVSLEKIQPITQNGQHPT
Method: (§1) Test for evaluating the bindings to dopaminergic receptors in cell cultures
(§2) Chinese hamster ovary cells (CHO) transfected with dopaminergic receptor subtypes and murine mesencephalic neuronal (NM9D) expressing the different subtypes of such receptors were used. The cell lines were grown on Petri dishes, in a mixture of DMEM and Ham's F12 medium 1:1 supplemented with 10% foetal bovine serum (FBS), penicillin, streptomycin, geneticin (500 μg/ml) and glutamin in a humidified 5% CO2 atmosphere at 37° C. When cells reached confluence they were washed with 10 ml of PBS (KCl 2.68 mM, KH2 PO4 1.4 mM, NaCl […] and Na2 HPO4 6.4 mM) then 5 ml of lysis buffer (Tris-HCl 10 mM and EDTA 5 mM) were added to each Petri. Cells were scrapped and the solution centrifuged for 20 minutes at 48,000 gravity, 4° C. The pellet was suspended in a minimal amount of lysis buffer and homogenised for 15 seconds. […] Saturation curves were analysed using Ligand® program to have Kd (dissociation constant) and Bmax (number of receptors/mg of protein) (Munson and Rodbar, 1980Anal. Biochem., 107, 220-239). […]
(§3) The compounds of the invention were tested at increasing concentrations for evaluating their binding to the various receptors, expressed as Ki (affinity constant) obtained through the Cheng and Prusoff equation

D5 = biological target: T2, D5 (Homo sapiens, UniProt P21918); assay: Binding to dopaminergic receptors in cell cultures, displacement of [3H]-SCH23390, D5; conditions: CHO or NM9D cell membranes; [3H]-SCH23390 0.2 nM; non specific (-)cis-flupenthixol 1 μM; Cheng and Prusoff; read-out: Receptor binding (Ki nM) D5
T2 construct: expressed in transfected cells; host or cells: CHO or murine mesencephalic neuronal NM9D (sic)
T2 sequence (P21918 whole entry): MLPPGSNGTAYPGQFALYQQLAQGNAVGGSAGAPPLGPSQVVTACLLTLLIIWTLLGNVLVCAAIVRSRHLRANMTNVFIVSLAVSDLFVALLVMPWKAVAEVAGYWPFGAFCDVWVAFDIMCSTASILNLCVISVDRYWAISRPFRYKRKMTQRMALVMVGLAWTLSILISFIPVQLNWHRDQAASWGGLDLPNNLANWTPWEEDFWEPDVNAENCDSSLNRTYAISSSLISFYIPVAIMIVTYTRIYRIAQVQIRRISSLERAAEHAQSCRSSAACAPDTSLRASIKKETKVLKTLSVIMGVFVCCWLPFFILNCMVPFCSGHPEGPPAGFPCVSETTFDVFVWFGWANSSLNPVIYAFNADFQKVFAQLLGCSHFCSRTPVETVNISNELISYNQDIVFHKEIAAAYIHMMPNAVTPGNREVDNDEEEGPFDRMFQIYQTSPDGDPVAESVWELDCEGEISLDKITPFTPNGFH
Method: as §1, §2, §3

D2s = biological target: T3, D2s (Homo sapiens, UniProt P14416); assay: Binding to dopaminergic receptors in cell cultures, displacement of [3H]-spiperone, D2s; conditions: CHO or NM9D cell membranes; [3H]-spiperone 0.1 nM; non specific (+)-butaclamol 1 μM; Cheng and Prusoff; read-out: Receptor binding (Ki nM) D2s
T3 construct: expressed in transfected cells; host or cells: CHO or murine mesencephalic neuronal NM9D (sic)
T3 sequence (P14416 1-414 isoform P14416-2): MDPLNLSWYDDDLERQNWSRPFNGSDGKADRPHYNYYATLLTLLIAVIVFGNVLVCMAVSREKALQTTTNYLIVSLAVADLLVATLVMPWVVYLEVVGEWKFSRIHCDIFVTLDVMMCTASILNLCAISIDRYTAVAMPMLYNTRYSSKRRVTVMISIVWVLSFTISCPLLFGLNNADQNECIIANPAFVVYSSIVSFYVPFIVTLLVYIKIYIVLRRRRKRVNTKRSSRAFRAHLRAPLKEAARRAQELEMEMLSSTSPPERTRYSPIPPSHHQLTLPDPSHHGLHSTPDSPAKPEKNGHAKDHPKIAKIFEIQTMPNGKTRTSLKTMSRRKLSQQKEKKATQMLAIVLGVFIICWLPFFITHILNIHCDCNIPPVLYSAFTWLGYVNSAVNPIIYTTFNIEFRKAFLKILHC
Method: as §1, §2, §3

D3 = biological target: T4, D3 (Homo sapiens, UniProt P35462); assay: Binding to dopaminergic receptors in cell cultures, displacement of [3H]-spiperone, D3; conditions: CHO or NM9D cell membranes; [3H]-spiperone 0.3 nM; non specific (+)-butaclamol 1 μM; Cheng and Prusoff; read-out: Receptor binding (Ki nM) D3
T4 construct: expressed in transfected cells; host or cells: CHO or murine mesencephalic neuronal NM9D (sic)
T4 sequence (P35462 whole entry): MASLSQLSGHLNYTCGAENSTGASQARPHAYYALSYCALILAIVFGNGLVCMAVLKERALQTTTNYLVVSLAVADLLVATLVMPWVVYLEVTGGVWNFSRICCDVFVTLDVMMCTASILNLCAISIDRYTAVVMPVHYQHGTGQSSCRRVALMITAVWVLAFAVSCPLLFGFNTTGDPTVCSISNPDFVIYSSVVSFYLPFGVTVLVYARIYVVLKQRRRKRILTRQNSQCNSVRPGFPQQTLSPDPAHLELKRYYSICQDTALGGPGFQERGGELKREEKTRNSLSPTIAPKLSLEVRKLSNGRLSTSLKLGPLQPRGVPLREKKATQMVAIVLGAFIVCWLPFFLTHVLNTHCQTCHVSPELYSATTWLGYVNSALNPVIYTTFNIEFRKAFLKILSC
Method: as §1, §2, §3

D4 = biological target: T5, D4 (Homo sapiens, UniProt P21917); assay: Binding to dopaminergic receptors in cell cultures, displacement of [3H]-spiperone, D4; conditions: CHO or NM9D cell membranes; [3H]-spiperone 0.2 nM; non specific (+)-butaclamol 1 μM; Cheng and Prusoff; read-out: Receptor binding (Ki nM) D4
T5 construct: expressed in transfected cells; host or cells: CHO or murine mesencephalic neuronal NM9D (sic)
T5 sequence (P21917 1-419): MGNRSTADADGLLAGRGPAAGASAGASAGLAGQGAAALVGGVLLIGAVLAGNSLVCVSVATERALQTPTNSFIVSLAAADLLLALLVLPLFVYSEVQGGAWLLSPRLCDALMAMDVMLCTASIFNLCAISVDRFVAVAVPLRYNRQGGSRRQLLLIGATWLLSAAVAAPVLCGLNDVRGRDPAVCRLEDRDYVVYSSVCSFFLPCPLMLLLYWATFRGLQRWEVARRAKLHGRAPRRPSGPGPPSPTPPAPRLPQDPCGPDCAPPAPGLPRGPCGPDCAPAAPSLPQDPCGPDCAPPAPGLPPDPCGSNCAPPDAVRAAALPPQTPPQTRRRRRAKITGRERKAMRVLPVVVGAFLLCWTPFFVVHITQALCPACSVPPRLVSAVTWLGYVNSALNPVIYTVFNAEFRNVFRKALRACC
Method: as §1, §2, §3

`CCCN(CCCCCCNCCc1ccc(S(C)(=O)=O)cc1)[C@H]1CCc2c(ccc3sc(=O)[nH]c23)C1` [Compound 2, (S)-6-N-propyl-N-6-[2-(4-methylsulfonylphenyl)ethylamino]hexylamino-4,5,6,7-tetrahydronaphtho(1,2-d)thiazol-2(3H)-one dihydrochloride] gave a Ki (D1) of over 10000 nM, a Ki (D5) of 9270 nM and a Ki (D2s) of 9440 nM. It also gave a Ki (D3) of 92 nM and a Ki (D4) of over 10000 nM.
